Measured values taken from patent US7166452B2, “Aminoketone asymmetric reductase and nucleic acid thereof” (priority 2001, dated 2007).

Tests used:
[1] = tested on: aminoketone asymmetric reductase; experiment: Substrate specificity and enzyme activity of purified enzyme (NADPH absorbance at 340 nm); format: biochemical, Rhodococcus erythropolis; settings: for enzyme acts on the compound (substrate specificity): purified enzyme
Experimental: (§1) While 10 μl of 1 M Tris-hydrochloric acid buffer solution (pH 8.0), 25 μl of 16 mM NADP^+, and 215 μl of the purified enzyme solution were held at 43° C., 1 μl of 1-amino-2-hydroxypropane was added thereto, whereby aminoacetone was produced. The increase or decrease in NADPH accompanying the reaction was measured by the change in absorbance at 340 nm. In the measurement of enzyme activity, the enzyme activity by which 1 μmol of 1-amino-2-hydroxypropane was oxidized per 1 min under the following condition was defined as 1 unit (U). As a result, the whole activity was 126 mU, the specific activity was 432 mU/mg, and the activity yield was 0.22%.
It was similarly confirmed that the enzyme acted on 1-2-methylaminopropiophenone, 1-2-dimethylaminopropiophenone, and 1-amino-2-butanone.

[2] = tested on: Mycobacterium smegmatis IAM-12065; format: cell-based
[3] = tested on: Rhodococcus erythropolis MAK-34; format: cell-based
[4] = tested on: Mycobacterium chlorophenolicum IFO-15527; format: cell-based
[5] = tested on: Nocardioides simplex IFO-12069; format: cell-based
[6] = tested on: Aspergillus candidus IFO-5468; format: cell-based
[7] = tested on: Aspergillus awamori IFO-4033; format: cell-based
[8] = tested on: Tritirachium oryzae IFO-7544; format: cell-based
[9] = tested on: Helicostylum nigricans IFO-8091; format: cell-based
[10] = tested on: Klebsiella pneumoniae IFO-3319; format: cell-based
[11] = tested on: Armillariella mellea IFO-31616; experiment: Influence of inducer addition on d-pseudoephedrine production (Example 6); format: cell-based; settings: cells cultured with inducer 5 g/L, medium 4
[12] = tested on: Hypocrea gelatinosa IFO-9165; experiment: as above; format: cell-based; settings: cells cultured with inducer 5 g/L, medium 4
[13] = tested on: Absidia lichtheimi IFO-4409; format: cell-based
[14] = tested on: Penicillium cyaneum IFO-5337; experiment: Influence of inducer addition on d-pseudoephedrine production (Example 6); format: cell-based; settings: cells cultured with inducer 5 g/L, medium 4
[15] = tested on: Rhodococcus erythropolis MAK-34 strain; format: cell-based
[16] = tested on: aminoketone asymmetric reductase; format: biochemical, Rhodococcus erythropolis; settings: inhibitor at a concentration of 1 mM; purified enzyme
Experimental: as §1, with “(U).” for “(U). As a result, the whole activity was 126 mU, the specific activity was 432 mU/mg, and the activity yield was 0.22%.”

[17] = tested on: aminoketone asymmetric reductase; experiment: Optimum pH and optimum temperature of purified enzyme; format: biochemical, Rhodococcus erythropolis; settings: 1-amino-2-propanol, NADP+
Experimental: Ten microliters of the purified enzyme solution, 420 μL of water, 20 μL of 1 M Tris-hydrochloric acid buffer solution, and 50 μL of 16 mM aqueous NADP^+ solution was mixed, and incubated at 45° C., and 2 μL of 1-amino-2-propanol were added thereto, so as to react therewith. Using a spectrophotometer, the activity was calculated from the change in absorbance at 340 nm with time (FIG. 2). As a result, the optimum pH was about 8.1.
Ten microliters of the purified enzyme solution, 420 μL of water, 20 μL of 0.1 M PIPES buffer solution (pH 7.5), and 50 μL of 16 mM aqueous NADP^+ solution was mixed, and incubated at various temperatures, and 2 μL of 1-amion-2-propanol were added thereto, so as to react therewith. Using a spectrophotometer, the activity was calculated from the change in absorbance at 340 nm with time (FIG. 3). As a result, the optimum temperature was 55° C.

CC(C(=O)c1ccccc1)N(C)C (centres unmarked) [1-2-dimethylaminopropiophenone]
enzyme acts on the compound (substrate specificity) [1]: acted on

CNC(C)C(=O)c1ccccc1 (centres unmarked) [1-2-methylaminopropiophenone]
enzyme acts on the compound (substrate specificity) [1]: acted on

CCC(=O)CN [1-amino-2-butanone]
enzyme acts on the compound (substrate specificity) [1]: acted on

CCC(O)CN (centres unmarked) [1-amino-2-hydroxybutane]
AMOUNT OF PRODUCTION (ADDED) [2]: 0.17 mg | AMOUNT OF PRODUCTION (ADDED) [3]: 0.65 mg

NC1CCCCC1O (centres unmarked) [1-amino-2-hydroxycyclohexane]
AMOUNT OF PRODUCTION (ADDED) [2]: 0.13 mg | AMOUNT OF PRODUCTION (ADDED) [3]: 0.23 mg

CC(O)CN (centres unmarked) [1-amino-2-hydroxypropane]
AMOUNT OF PRODUCTION (ADDED) [2]: 0.210 mg | AMOUNT OF PRODUCTION (ADDED) [4]: 0.770 mg | AMOUNT OF PRODUCTION (ADDED) [5]: 0.190 mg | AMOUNT OF PRODUCTION (ADDED) [6]: 0.018 mg | AMOUNT OF PRODUCTION (ADDED) [3]: 1.260 mg | AMOUNT OF PRODUCTION (ADDED) [7]: 1.170 mg | AMOUNT OF PRODUCTION (ADDED) [8]: 0.078 mg | AMOUNT OF PRODUCTION (ADDED) [9]: 0.520 mg | AMOUNT OF PRODUCTION (ADDED) [10]: 0.066 mg | AMOUNT OF PRODUCTION (ADDED) [11]: 0.460 mg | enzyme acts on the compound (substrate specificity) [1]: acts on | AMOUNT OF PRODUCTION (ADDED) [12]: 0.640 mg | AMOUNT OF PRODUCTION (ADDED) [13]: 0.220 mg | AMOUNT OF PRODUCTION (ADDED) [14]: 1.260 mg

CC(=O)CN [1-amino-2-oxopropane]
AMOUNT OF PRODUCTION [15]: 1.97 mg | enzyme acts on the compound (substrate specificity) [1]: reduction activity

O=C(O)CN(CCN(CC(=O)O)CC(=O)O)CC(=O)O [EDTA]
enzyme activity inhibited by inhibitor [16]: inhibited

c1cnc2c(c1)ccc1cccnc12 [o-phenanthroline]
enzyme activity inhibited by inhibitor [16]: inhibited

c1ccc(-c2ccccn2)nc1 [α,α′-dipyridyl]
enzyme activity inhibited by inhibitor [16]: inhibited

B1: aminoketone asymmetric reductase: enzyme purified from Rhodococcus erythropolis MAK-34; SEQ ID NO:1; tetramer of about 28,500 subunits; coenzyme NADP (protein, listed as Rhodococcus erythropolis)
chain: MFNSIEGRSVVVTGGSKGIGLGMVRVFARAGANVLMTARDALTLERAAEGLNGLPGAVSTLQVDVTNPDSLAGMAEVAAERHGGIDVLCANAGIFPSKRLGEMTSEDMDSVFGVNVKGTIHAVQACMPWLETSGRGRVVVTSSITGPVTGYPGWSHYGASKAAQMGFIRTAAIELAPKRITINAVLPGNVITEGLDGLGQEYLDQMASSVPAGSLGSVEDIANAALFFALDEAAYITGQSLIVDGGQVLPESAMALGEL
modifications: tetramer
notes: enzyme purified from Rhodococcus erythropolis MAK-34; tetramer of about 28,500 subunits; coenzyme NADP
optimum temperature ([17]; PIPES buffer pH 7.5): 55 °C | optimum pH ([17]; Tris-hydrochloric acid buffer, 45° C.): about 8.1 | specific activity ([1]; oxidation of 1-amino-2-hydroxypropane, NADP+, pH 8.0, 43° C., 1 U = 1 μmol per 1 min): 432 mU/mg
